Measurements reported in publication PMC6333442, “Conserved allosteric pathways for activation of TRPV3 revealed through engineering vanilloid-sensitivity” (eLife, 2019).
Positions count from the first letter of the chain named. Where “and” joins values, the source holds several entries; their conditions need not be identical. Equal entries are not always repeated.

How the values were obtained:
[1] = biological target: T1, TRPV3-5PM (Mus musculus, UniProt Q8K424, A606V/F625L/F656I/F666Y/V587L); assay type: cell-based
T1 construct: expressed in transfected cells; host or cells: Xenopus laevis oocytes
T1 sequence (Q8K424 1-791 V587L/A606V/F625L/F656I/F666Y): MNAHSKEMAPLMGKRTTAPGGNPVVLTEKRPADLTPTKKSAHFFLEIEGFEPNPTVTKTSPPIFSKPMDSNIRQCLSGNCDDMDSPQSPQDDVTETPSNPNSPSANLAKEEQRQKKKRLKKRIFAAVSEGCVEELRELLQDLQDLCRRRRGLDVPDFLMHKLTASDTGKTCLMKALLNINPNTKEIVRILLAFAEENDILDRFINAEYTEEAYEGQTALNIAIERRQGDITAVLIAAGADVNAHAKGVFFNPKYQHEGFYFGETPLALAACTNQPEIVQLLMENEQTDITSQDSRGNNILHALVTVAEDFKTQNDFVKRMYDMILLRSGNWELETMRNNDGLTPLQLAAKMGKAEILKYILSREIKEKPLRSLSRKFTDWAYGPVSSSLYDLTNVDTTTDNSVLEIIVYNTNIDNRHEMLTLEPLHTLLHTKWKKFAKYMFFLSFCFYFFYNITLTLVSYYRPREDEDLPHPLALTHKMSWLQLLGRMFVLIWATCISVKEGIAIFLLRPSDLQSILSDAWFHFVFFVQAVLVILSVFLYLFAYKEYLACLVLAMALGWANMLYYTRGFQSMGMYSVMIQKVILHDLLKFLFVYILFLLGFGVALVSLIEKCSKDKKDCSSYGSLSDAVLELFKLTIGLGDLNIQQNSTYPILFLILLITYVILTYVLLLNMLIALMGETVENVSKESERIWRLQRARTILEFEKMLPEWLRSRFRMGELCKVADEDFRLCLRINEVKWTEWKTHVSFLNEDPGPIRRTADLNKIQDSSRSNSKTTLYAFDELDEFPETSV
Description: All channel constructs were expressed in Xenopus laevis oocytes and studied using the two-electrode voltage clamp technique (TEVC) following 1–4 days of incubation after cRNA injection. The animal care and experimental procedures were performed in accordance with the Guide for the Care and Use of Laboratory Animals and were approved by the Animal Care and Use Committee of the National Institute of Neurological Disorders and Stroke (Animal protocol number 1253–17). Oocytes were removed surgically and incubated with agitation for 1 hr in a solution containing (in mM) 82.5 NaCl, 2.5 KCl, 1 MgCl2, 5 HEPES, pH 7.6 (with NaOH), and collagenase (2 mg/ml; Worthington Biochemical, Lakewood, NJ). Defolliculated oocytes were injected with cRNA for each of the constructs and incubated at 17°C in a solution containing (in mM) 96 NaCl, 2 KCl, 1 MgCl2, 1.8 CaCl2, 5 HEPES, pH 7.6 (with NaOH), and gentamicin (50 μg/ml, GIBCO-BRL, Gaithersburg, MD). Oocyte membrane voltage was controlled using an OC-725C oocyte clamp (Warner Instruments, Hamden, CT). Data were filtered at 1–3 kHz and digitized at 20 kHz using pClamp software (Molecular Devices, Sunnyvale, CA) and a Digidata 1440A digitizer (Axon Instruments). Microelectrode resistances were 0.1–1 MΩ when filled with 3 M KCl. For recording TRP channel currents, the external recording solution contained (in mM) 100 KCl, 10 HEPES, pH 7.6 (with KOH). Experiments were performed at room temperature (~22°C), except as indicated otherwise. […] Current time courses were obtained by stepping membrane voltage every 2 s from a holding potential of 0 mV to either −60 or +60 mV for 100 ms, and plotting the mean steady-state current at the end of each voltage step as a function of total recording time. I-V relations were obtained similarly, but voltage was stepped every 2 s to a different value, in 10 mV increments and starting at −60 mV.

[2] = tested on: TRPV3-6M + I595L, K611D, L635F, L639M or Y650F; assay: Two-electrode voltage clamp, TRPV3-6M with individual pore mutations (weak RTx responders); assay type: cell-based, mouse; conditions: RTx 100 nM, room temperature; smaller than responses to 2-APB
Description: (§1) All channel constructs were expressed in Xenopus laevis oocytes and studied using the two-electrode voltage clamp technique (TEVC) following 1–4 days of incubation after cRNA injection. The animal care and experimental procedures were performed in accordance with the Guide for the Care and Use of Laboratory Animals and were approved by the Animal Care and Use Committee of the National Institute of Neurological Disorders and Stroke (Animal protocol number 1253–17). Oocytes were removed surgically and incubated with agitation for 1 hr in a solution containing (in mM) 82.5 NaCl, 2.5 KCl, 1 MgCl2, 5 HEPES, pH 7.6 (with NaOH), and collagenase (2 mg/ml; Worthington Biochemical, Lakewood, NJ). Defolliculated oocytes were injected with cRNA for each of the constructs and incubated at 17°C in a solution containing (in mM) 96 NaCl, 2 KCl, 1 MgCl2, 1.8 CaCl2, 5 HEPES, pH 7.6 (with NaOH), and gentamicin (50 μg/ml, GIBCO-BRL, Gaithersburg, MD). Oocyte membrane voltage was controlled using an OC-725C oocyte clamp (Warner Instruments, Hamden, CT). Data were filtered at 1–3 kHz and digitized at 20 kHz using pClamp software (Molecular Devices, Sunnyvale, CA) and a Digidata 1440A digitizer (Axon Instruments). Microelectrode resistances were 0.1–1 MΩ when filled with 3 M KCl. For recording TRP channel currents, the external recording solution contained (in mM) 100 KCl, 10 HEPES, pH 7.6 (with KOH). […]

[3] = tested on: TRPV3-6M + V587L, A606V, F625L, F656I or F666Y; assay: Two-electrode voltage clamp, TRPV3-6M with individual pore mutations (strong RTx responders); assay type: cell-based, mouse; conditions: RTx 100 nM, room temperature; magnitude very similar to 2-APB 3 mM
Description: as §1

[4] = biological target: T2, TRPV3-6M/4PM (Mus musculus, UniProt Q8K424, A560T/F522S/F625L/F656I/F666Y/H523E/L557M/Q580E/V587L/W521Y); assay: Two-electrode voltage clamp, TRPV3-6M/4PM in oocytes; assay type: cell-based; conditions: RTx 100 nM, 2-APB 3 mM, +60 mV
T2 construct: expressed in transfected cells; host or cells: Xenopus laevis oocytes
T2 sequence (Q8K424 1-791 W521Y/F522S/H523E/L557M/A560T/Q580E/V587L/F625L/F656I/F666Y): T1 sequence (Q8K424 1-791 V587L/A606V/F625L/F656I/F666Y) with W521Y, F522S, H523E, L557M, A560T, Q580E, V606A
Description: as §1

Row | Compound | increase in the apparent affinity for 2-APB [1] | s (slope) of Hill fit, 2-APB concentration-response [1] | EC50 ([1]; read-out: apparent affinity (EC50) for activation by 2-APB) [µM] | channel activation (current response) [2] | channel activation (current response) [3] | response to RTx compared with maximal response to 2-APB [4]
1 | NCCOB(c1ccccc1)c1ccccc1 [2-APB, 2-aminoethoxydiphenyl borate] | 20 fold and > 20 fold and ~ 20 fold | 1.32 | 19 ± 2 | – | – | –
2 | C=C(C)[C@]12C[C@@H](C)[C@@]34O[C@](Cc5ccccc5)(O[C@@H]1[C@@H]3C=C(COC(=O)Cc1ccc(O)c(OC)c1)C[C@]1(O)C(=O)C(C)=C[C@@H]41)O2 [RTx, resiniferatoxin] | – | – | – | detectable responses | robust RTx-activated currents | similar
